Results published in article PMC4757794 (2016).

Legend:
[1] = test system: self-complementary CC mismatched DNA 5′-C1G2G3A4C5T6C7C8G9-3′ (DNA, mismatch bulge abasic) CGGACTCCG; experiment: 1H NMR, NOESY, TOCSY titration; conditions: 20 mM NaCl, 50 mM sodium phosphate; D2O, pH 6.1, 10 °C; shifts at A4 and C5, mismatched site
[2] = test system: normal (matched) 27-mer dsDNA (DNA, duplex) GACCAGCTTATCATCCCTAGATAAGCG/CGCTTATCTAGGGATGATAAGCTGGTC; experiment: emission titration; conditions: 50 mM NaCl; 2 mM Tris, pH 7.5; 5 μM 1c; 4.7-fold emission increase
[3] = test system: hairpin DNA oligomer with a CC mismatch (DNA, mismatch bulge abasic) GGCAGGCATGGCTTTTTGCCATCCCTGCC; experiment: emission titration
[4] = test system: 27-mer dsDNA with CC mismatch (DNA, mismatch bulge abasic) GACCAGCTTATCATCCCTAGATAAGCG/CGCTTATCTAGGCATGATAAGCTGGTC; experiment: emission titration; conditions: 50 mM NaCl; 2 mM Tris, pH 7.5; 5 μM 1c; comparison DNA of abasic titration
[5] = test system: hairpin matched DNA (DNA, hairpin) GGCAGGCATGGCTTTTTGCCATGCCTGCC; experiment: emission titration
[6] = test system: 27-mer abasic dsDNA AP_T (DNA, mismatch bulge abasic, abasic at 13 of strand 2) GACCAGCTTATCATTCCTAGATAAGCG/CGCTTATCTAGGNATGATAAGCTGGTC; experiment: emission titration; conditions: 50 mM NaCl; 2 mM Tris, pH 7.5; 5 μM 1c; 21.1-fold emission increase
[7] = test system: CC mismatched DNA (ITC) (DNA, mismatch bulge abasic) GCGCCGTCGTCCATGTG/CACATGCACGACGGCGC; experiment: ITC
[8] = test system: matched 17-mer dsDNA (DNA, duplex) GCGCCGTCGTCCATGTG/CACATGGACGACGGCGC; experiment: emission titration; conditions: 50 mM NaCl; 2 mM Tris, pH 7.5; 2.8-fold emission increase
[9] = test system: 27-mer abasic dsDNA AP_C (DNA, mismatch bulge abasic, abasic at 13 of strand 2) GACCAGCTTATCATCCCTAGATAAGCG/CGCTTATCTAGGNATGATAAGCTGGTC; experiment: emission titration; conditions: 50 mM NaCl; 2 mM Tris, pH 7.5; 5 μM 1c; 32.2-fold emission increase
[10] = test system: 27-mer abasic dsDNA AP_G (DNA, mismatch bulge abasic, abasic at 13 of strand 2) GACCAGCTTATCATGCCTAGATAAGCG/CGCTTATCTAGGNATGATAAGCTGGTC; experiment: emission titration; conditions: 50 mM NaCl; 2 mM Tris, pH 7.5; 5 μM 1c; 14.4-fold emission increase
[11] = test system: 27-mer abasic dsDNA AP_A (DNA, mismatch bulge abasic, abasic at 13 of strand 2) GACCAGCTTATCATACCTAGATAAGCG/CGCTTATCTAGGNATGATAAGCTGGTC; experiment: emission titration; conditions: 50 mM NaCl; 2 mM Tris, pH 7.5; 5 μM 1c; 14.8-fold emission increase
[12] = test system: CC mismatched 17-mer dsDNA (DNA, mismatch bulge abasic) GCGCCGTCGTCCATGTG/CACATGCACGACGGCGC; experiment: emission titration; conditions: 50 mM NaCl; 2 mM Tris, pH 7.5; 27.5-fold emission increase
[13] = test system: matched DNA (ITC) (DNA, duplex) GCGCCGTCGTCCATGTG/CACATGGACGACGGCGC; experiment: ITC
[14] = test system: DNA without an abasic site (melting temperature experiment) (DNA, duplex) GACCAGCTTATCATCCCTAGATAAGCG/CGCTTATCTAGGGATGATAAGCTGGTC; experiment: melting temperature; conditions: Tm stated not affected
[15] = 50 mM NaCl, 2 mM Tris, pH 7.5, 0.1 mM complex titrated with 0.75 mM DNA

CCCCN1[C]N(Cc2ccccc2)C=C1.[Pt+2].[c-]1ccccc1-c1cccc(-c2ccccn2)n1
binding [1]: yes | binding [2]: weak | binding ([3]; 50 mM NaCl, 2 mM Tris, pH 7.5, 5 μM 1c, 26.4-fold emission increase at 1 equivalent): yes | binding [4]: yes | binding ([5]; 50 mM NaCl, 2 mM Tris, pH 7.5, 5 μM 1c, 2.6-fold emission increase at 1 equivalent): weak | binding [6]: yes | Kd [7, 15]: 51.5 ± 8.0 µM | binding [8]: weak | binding [9]: yes | binding [10]: yes | binding [11]: yes | binding [12]: yes

CN1[C]N(C)C=C1.[Pt+2].[c-]1ccccc1-c1cccc(-c2ccccn2)n1
binding ([3]; 8.5-fold emission increase): yes | binding ([5]; 7.1-fold emission increase): yes | Kd [7, 15]: 66.2 ± 15.7 µM | Kd [13, 15]: 56.4 ± 13.6 µM

CC[n+]1c(-c2ccccc2)c2cc(N)ccc2c2ccc(N)cc21
binding ([3]; 12.7-fold emission increase): yes | binding ([5]; 14.1-fold emission increase): yes | Kd ([7]; Na+ 50 mM (Tris 2 mM buffer)): 1.32 ± 0.24 µM | Kd ([13]; Na+ 50 mM (Tris 2 mM buffer)): 1.60 ± 0.28 µM

C1CCC(P(CP(C2CCCCC2)C2CCCCC2)C2CCCCC2)CC1.[Pt+2].[Pt+2].[c-]1ccccc1-c1cccc(-c2ccccn2)n1.[c-]1ccccc1-c1cccc(-c2ccccn2)n1
binding [14]: no | binding ([3]; 50 mM NaCl, 2 mM Tris, pH 7.5, 5 μM 2, 50-fold emission increase at 0.5 equivalents): yes | binding ([5]; 50 mM NaCl, 2 mM Tris, pH 7.5, 5 μM 2, 8.2-fold emission increase at 0.5 equivalents): weak | Kd [7, 15]: 7.0 ± 2.1 µM | binding ([13]; 50 mM NaCl, 2 mM Tris, pH 7.5, 0.1 mM complex titrated with 0.75 mM DNA, Kd stated negligible): no
